In patent US20100260680A1, “NOVEL BONE MASS INCREASING AGENT” (ORIENTAL YEAST CO., LTD., priority 2007, published 2010):
Bridges are numbered along the chain shown (N, C = ends). Where no end group is shown, it is not given here.

How the values were obtained:
C57BL/6CrjCrlj mice [1] = experiment: Peptide D administration to mice: bone density (SXA), pQCT and μCT analysis of femur; format: in vivo, mouse
Procedure: A synthetic peptide was used for experiments. Synthetic peptide D is a cyclic peptide comprising the amino acid sequence represented by SEQ ID NO: 7, which consists of 9 amino acids and contains two cysteine residues binding to each other via a disulfide bond. […] The synthetic peptide was dissolved in 10% DMSO (Nacalai)/PBS to a concentration of 1 mg/ml.
Subcutaneous administration of peptide D was carried out in a dose of 10 mg/kg at 8:00, 14:00, and 20:00 (three times daily) for 5 days. 5% DMSO/PBS was administered to the control group. Mice were dissected 12 hour after the completion of administration for 5 days and subjected to exsanguination. Thereafter, the femur and the tibia were collected from each mouse. The whole blood of each mouse was left at room temperature for 1 hour and then centrifuged under conditions of 5000 rpm and 4° C. for 5 min. The serum was collected in a new tube. The femur and the tibia of each mouse were fixed with cold 70% ethanol.
Each femur fixed with ethanol was subjected to single energy X-ray absorptiometry (SXA) analysis (DCS-600EX-IIIR DXA for animals, ALOKA) for determination of bone density, bone mineral content, and bone surface area. The full length of each bone was divided into 20 regions. The bone density for each region was determined and actions of the peptide in each region were analyzed.
Bone structure analysis was carried out by peripheral quantitative computed tomography (hereinafter abbreviated as pQCT) and micro-computed tomography (hereinafter abbreviated as μCT). Scan-Xmate-A080 (Comscantecno Co., Ltd.) was used for μCT and XCT-Research SA+(Stratec Medizintechnik GmbH) was used for pQCT. The dedicated software (3D-BON (RATOC)) was used for preparation of three-dimensional structural image and trabecular structure analysis with the use of μCT data. In addition, for analysis by pQCT, a region with a bone density of 395 mg/cm^3 or less was determined to be cancellous bone and a region with a bone density of 690 mg/cm^3 or more was determined to be cortical bone.

mouse tibia = experiment: DNA microarray analysis of tibia of mice given peptide D; format: in vivo; details: peptide D acetate 10 mg/kg s.c. three times daily for 5 days; n=2
Procedure: Total RNA (2 μg) extracted from the tibia of each mouse described in Example 24 was used for a DNA microarray (each group: n=2). According to a standard method, DNA microarray analysis (Mouse Genome 430 2.0 Affymetrix) was carried out. In addition, scanning was performed with a GeneChip Scanner 3000 (Affymetrix 690036) and digitalization was performed using the Gene Chip Operating Software ver. 1.4.

MC3T3-E1 cells = experiment: DNA microarray analysis of MC3T3-E1 cells; format: cell-based, mouse; details: 200 μM peptide D (acetate)
Procedure: MC3T3-E1 cells mixed with 10% FBS+αMEM (SIGMA) were seeded on a 10 cm dish (2×10^5 cells/well). After 12 hours, the medium was removed therefrom. […] The medium was partially removed at 12 and 96 hours, at which time TRIZOL solution (Invitrogen) (3 mL) was added to each well for cell lysis. Then, total RNA extraction was carried out by the method described in Example 15. Each extracted total RNA (2 μg) was subjected to DNA microarray analysis (Mouse Genome 430 2.0 Affymetrix). In addition, scanning was performed with a GeneChip Scanner 3000 (Affymetrix 690036) and digitalization was performed with the Gene Chip Operating Software ver. 1.4.

C57BL/6CrjCrlj mice [2] = experiment: Bone morphology measurement with calcein labeling after peptide D administration; format: in vivo, mouse; details: region 5 mm away from the distal end of the femur
Procedure: In the experiment in Example 11 in which synthetic peptide D had been administered to mice, calcein (Nacalai) mixed with 2% hydrogen carbonate/ethanol aqueous solution was intraperitoneally administered in doses of 0.01 mL/g (weight) to individual mice of each group for calcein labeling on Days 1 and 4 after the initiation of administration of synthetic peptide D. A region located 5 mm away from the ethanol-fixed distal end of the femur collected from each mouse upon dissection was embedded in a methylmethacrylate (MMA) resin so that a non-decalcified specimen was prepared. […] As a result, in the group treated with peptide D, increases in calcification rate and osteogenesis rate were observed (FIGS. 25A and 25B).

Smad1/5/8 = experiment: Western blotting of Smad1/5/8 phosphorylation in MC3T3-E1 cells; format: cell-based, mouse; details: up to 3 hours after the addition; 200 μM peptide D or 200 ng/ml BMP-2
Procedure: MC3T3-E1 cells mixed with 10% FBS+αMEM (SIGMA) were seeded on a 6-well plate (7.5×10^4 cells/well). […] The medium was removed at the respective time points shown in the relevant figures. PBS was added to the cells, and the cells were collected with a scraper (Falcon). A cell pellet was obtained via centrifugation at 1200 rpm for 5 min at 4° C. RIPA buffer (100 μL) was added to the collected pellet, for dissolution of the cellular membrane. Further, the resultant was centrifuged under conditions of 14500 rpm for 25 min at 4° C. The supernatant was collected as a cell extract. A portion of the cell extract was used for quantification of the protein concentration with the use of a BCA protein assay kit (PIERCE). For SDS-PAGE, a sample buffer in an amount that was ¼ that of the cell extract (Fermentas) was added thereto, followed by heating at 95° C. for 5 min. The prepared sample was applied in an amount of 7.5 or 10 μg to 10% polyacrylamide gel (BioRad), followed by electrophoresis at 170 V for 1 hour. After electrophoresis, the electrophoresed sample was transferred to a PVDF membrane (Millipore) at 80 mA for 40 min. The membrane was shaken in a blocking solution (Nacalai) at room temperature for 1 hour and then a primary antibody was added thereto, followed by shaking at room temperature for 1 hour at 4° C. for 12 hours. […]

[3] = μCT trabecular structure measurement

peptide D: cyclic peptide of SEQ ID NO: 7, 9 amino acids, two cysteine residues bound via a disulfide bond; binds to RANKL (YCWSQYLCY; disulfide 2-8 (inferred))
bone mineral content (SXA, femur) (C57BL/6CrjCrlj mice [1]; 10 mg/kg s.c. 3 times daily for 5 days): increase in bone mineral content
bone density (SXA, femur) (C57BL/6CrjCrlj mice [1]; 10 mg/kg s.c. 3 times daily for 5 days, p<0.05 vs control group): significant increase in bone density
bone density of each region (SXA20 partition analysis) (C57BL/6CrjCrlj mice [1]; 6th to 9th regions from the distal end of the femur, p<0.05 vs control group): significant increase in bone density
bone resorption inhibition actions (C57BL/6CrjCrlj mice [1]; based on trabecular structure measurement by μCT): weak actions
intimal circumference of the cortical bone (C57BL/6CrjCrlj mice [1]; region 5 mm away from the distal end of the femur): shortened
cortical bone density (pQCT) (C57BL/6CrjCrlj mice [1]; region 5 mm away from the distal end of the femur, p<0.05 vs control group): significant increase in cortical bone density
cancellous bone content (μCT) (C57BL/6CrjCrlj mice [1]; site 2 mm away from the distal end of the femur): increased
BV/TV of the cancellous bone (C57BL/6CrjCrlj mice [1]; [3]): increased
trabecular width of the cancellous bone (C57BL/6CrjCrlj mice [1]; [3]): increased
microarray signals of OC, ALP, CoL1 α2, PDGFc, PDGFRβ and IGF-1 in tibia (mouse tibia): significantly higher signals
expression level of the osteocalcin (OC) gene (MC3T3-E1 cells): increased sharply
gene expression levels of IRS-1, IGF-1, FGF receptor 2, PDGF receptor β, PDGF receptor α, CTGF, type I collagen α1 and α2 chains (MC3T3-E1 cells; 12 hours): increased significantly
gene expression levels of IGF-2, ALP, BMP-4, OC (osteocalcin), FGF2, PDGFc, PDGFα, PDGFβ (MC3T3-E1 cells; 96 hours): increased significantly
calcification rate (C57BL/6CrjCrlj mice [2]): increases
osteogenesis rate (bone formation rate) (C57BL/6CrjCrlj mice [2]): increases
phosphorylation of Smad1/5/8 (Smad1/5/8): not induced
